The values below come from PubChem BioAssay (NCI).

Assay in all cases: NCI-60 cell line screen, 48 h
In experiment [1] the test system is SN12C renal.
Experiment [2] relates to KM12 colon.
The test system of experiment [3] is OVCAR-5 ovarian.
For experiment [4], the system named is ACHN renal.
Experiment [5] relates to HCT-15 colon.
Experiment [6] concerns NCI-H460 lung.
Experiment [7] deals with SK-MEL-28 melanoma.
Experiment [8] concerns SW-620 colon.
Experiment [9] concerns HL-60(TB) leukemia.
Experiment [10] concerns M14 melanoma.

Each structure is given as a SMILES string.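 Values below derive from 48-hour exposures of cells grown in 96-well plates, with endpoints linearly interpolated between the two concentrations bracketing the appropriate inhibition level. GI50 marks 50% less growth. TGI: total growth inhibition.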 A value given as a limit tells only on which side of the number the result lay.

As to `Cc1ccc(-c2csc(NC(=O)CN3CCN(c4cc5c(cc4F)c(=O)c(C(=O)O)cn5C4CC4)CC3)n2)cc1`, the GI50 in experiment [1] is 413 nM; in experiment [2], 0.508 µM; in experiment [3] it was 3.48 µM; in experiment [4], 2580 nM; in experiment [5], 441 nM; in experiment [6] it was 368 nM. The GI50 in experiment [7] was 1.94 µM; in [8], 0.95 µM; in [9], 1470 nM; in [10], 1630 nM. In addition, the TGI in experiment [1] is 15.4 µM; in [2], greater than 100 µM; in [3], 39.8 µM; in [4] it was 14.3 µM; in experiment [5] it was greater than 100 µM; in experiment [6], 17.1 µM. Further, the TGI in experiment [7] was greater than 100 µM; in experiment [8] it was greater than 100 µM; in experiment [9], 3.94 µM; in experiment [10], 32.9 µM.

As for `Cc1cc2c(cc1Cl)SC1=NN(C)C(N(C)C)N1S2(=O)=O` (centres undefined), the GI50 in [1] is greater than 100000 nM; in experiment [2] it was greater than 100 µM; in experiment [3], greater than 100 µM; in experiment [4], greater than 100000 nM; in experiment [5] it was greater than 100000 nM; in [6] it was greater than 100000 nM. In addition, the GI50 is greater than 100 µM in experiment [7], greater than 100 µM in experiment [8], greater than 100000 nM in experiment [9] and greater than 100000 nM in experiment [10]. The TGI in [1], in [2], in [3], in [4], in experiment [5] and in experiment [6] was greater than 100 µM each time. The TGI in [7], in experiment [8], in experiment [9] and in experiment [10] was greater than 100 µM in each case.

Regarding `Cc1cccc(C)c1NC(=O)C1C(=O)N(c2c(C)cccc2C)C(=O)/C1=N\NC(N)=S` (centres undefined), the TGI in experiment [1], in [2], in experiment [3], in [4], in experiment [5] and in [6] was greater than 100 µM each time. For the same compound, the TGI in [7], in experiment [8], in [9] and in experiment [10] was greater than 100 µM each time.

Regarding `Cc1ccc2nc(-c3ccc(N(C)C)c(Br)c3)cn2c1`, the GI50 in experiment [1] is greater than 100000 nM; in experiment [2] it was 54.1 µM; in experiment [3], greater than 100 µM; in [4], greater than 100000 nM; in [5], 4190 nM; in experiment [6], 4180 nM. Moreover, the GI50 in experiment [7] is 10.5 µM; in experiment [8] it was 42.3 µM; in experiment [9] it was 1610 nM; in [10], greater than 100000 nM. The TGI in experiment [1], in [2], in experiment [3], in experiment [4], in experiment [5] and in experiment [6] was greater than 100 µM in each case. The TGI in experiment [7], in experiment [8], in [9] and in [10] was greater than 100 µM each time.

Consider `Cc1[nH]nc(C(=O)n2nc(N)c3ccccc32)c1[N+](=O)[O-]`, for which the GI50 in [1] is greater than 100000 nM; in [2], greater than 100 µM; in [3], greater than 100 µM; in experiment [4], greater than 100000 nM; in [5] it was greater than 63500 nM; in [6], greater than 100000 nM. Besides, the GI50 is greater than 100 µM in [7], greater than 100 µM in [8] and greater than 100000 nM in experiment [10]. In addition, the TGI in [1], in experiment [2], in [3], in experiment [4], in experiment [5] and in [6] was greater than 100 µM each time. The TGI in experiment [7], in [8], in experiment [9] and in [10] was greater than 100 µM in each case.

Turning to `C[C@]12CCCC(=O)C1(O)C[C@H](C(=O)O)CC2` (some centres undefined), the TGI in [1], in [2], in experiment [3], in experiment [4], in experiment [5] and in experiment [6] was greater than 100 µM in each case. Further, the TGI in experiment [7], in experiment [8], in experiment [9] and in experiment [10] was greater than 100 µM each time.

For the compound `Fc1cc2[nH]ncc2c2c3c(c(-c4cn[nH]c4C(F)(F)F)nc12)C1CCC3C1` (centres undefined), the GI50 was 960 nM in experiment [1]; 0.656 µM in experiment [2]; 1.19 µM in experiment [3]; 532 nM in experiment [4]; 1330 nM in experiment [5]; 1150 nM in experiment [6]. Further, the GI50 in experiment [7] was 0.889 µM; in experiment [8], 0.982 µM; in experiment [9], 1100 nM; in experiment [10], 791 nM. For the same compound, the TGI worked out at 5.18 µM in [1]; 6.3 µM in experiment [2]; 3.72 µM in experiment [3]; 3.2 µM in experiment [4]; 7.28 µM in experiment [5]; 5.5 µM in experiment [6]. Besides, the TGI in experiment [7] worked out at 2.84 µM; in experiment [8], 5.13 µM; in [9] it was 2.6 µM; in [10], 3.53 µM.

Consider `O=C1C(c2ccccc2)=[N+]([O-])c2ccccc21`, for which the TGI in experiment [1] is 34.2 µM; in experiment [2] it was 55.2 µM; in experiment [3], 43.1 µM; in experiment [4], 33.6 µM; in experiment [5], 37.9 µM; in experiment [6], 32.7 µM. Further, the TGI was found to be 33.2 µM in [7], 22.3 µM in [8], 42.2 µM in [9] and 27 µM in [10].

In the case of `COc1ccc(N2C(=O)[C@H]3CC(C)c4c([nH]c5ccccc45)[C@H]3C2=O)cc1` (some centres undefined), the TGI in [1] is 83.9 µM; in experiment [2], 63.1 µM; in experiment [3] it was greater than 85.6 µM; in [4], greater than 76.8 µM; in experiment [5], greater than 100 µM; in experiment [6] it was 41.9 µM. Further, the TGI in experiment [7] is 57.8 µM; in experiment [8], greater than 86.8 µM; in experiment [9], 20.1 µM; in experiment [10], 39.9 µM.
